Reference: US20240067631A1, “PYRAZOLE DERIVATIVES USEFUL AS NAMPT MODULATORS” (Cytokinetics, Inc., priority 2020, published 2024)
Each block holds one compound with its values, some of them ahead of it.

What was measured:
human NAMPT = human NAMPT (Homo sapiens (Human), UniProt P43490); test: Human recombinant enzyme assay (NMN fluorescence biochemical assay); conditions: 6 nM human NAMPT, 60 min; for AC1.4 Human: concentration of compound that generates 40% higher activity over basal; for EC50: concentration that gives half-maximal activation
Sequence of human NAMPT (P43490 whole entry): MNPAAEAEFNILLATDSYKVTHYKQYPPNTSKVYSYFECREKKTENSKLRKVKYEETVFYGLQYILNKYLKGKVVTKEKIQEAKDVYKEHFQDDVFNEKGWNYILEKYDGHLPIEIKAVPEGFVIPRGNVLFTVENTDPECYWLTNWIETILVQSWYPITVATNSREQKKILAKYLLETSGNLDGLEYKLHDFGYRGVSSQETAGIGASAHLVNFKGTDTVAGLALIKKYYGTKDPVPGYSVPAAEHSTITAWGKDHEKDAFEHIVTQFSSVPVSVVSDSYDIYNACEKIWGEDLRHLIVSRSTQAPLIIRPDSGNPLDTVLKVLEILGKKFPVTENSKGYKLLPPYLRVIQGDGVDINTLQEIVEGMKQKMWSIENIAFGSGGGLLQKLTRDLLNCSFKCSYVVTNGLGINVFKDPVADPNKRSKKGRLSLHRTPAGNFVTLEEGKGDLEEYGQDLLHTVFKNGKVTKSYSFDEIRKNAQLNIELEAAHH
Method in brief: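 Recombinant human NAMPT (6 nM) with 2.5 mM ATP, […] PRPP and […] nicotinamide in HEPES pH 7.2 with DTT, CHAPS, NaCl, MgCl2; 60 min at ambient temperature. NMN derivatised with acetophenone/KOH/formic acid, fluorescence read at 355/460 nm. AC1.4 (40% above basal) and EC50 reported.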

endogenous NAMPT = endogenous NAMPT (Homo sapiens (Human), UniProt P43490); test: Cellular NAD+ modulation assay in SH-SY5Y cells with doxorubicin; format: cell-based; conditions: Neuroblastoma SH-SY5Y cells, 40 hours, cellular NAD levels; for EC50: read-out: SY5Y (human) NAD Cell Dox EC50
Sequence of endogenous NAMPT (P43490 whole entry): as above
Description: The compounds described herein were also assayed for their ability to stimulate the endogenous NAMPT in a native cellular environment in the cellular NAD+ modulation assay, which measures the ability of the compound to modulate cellular NAD levels. Increased levels of NAD are expected by compounds that permeate the cells and activate the catalytic activity of the endogenous NAMPT.
Neuroblastoma SH-SY5Y cells were grown in 1:1 mixture of Eagle's Minimum Essential Medium and F12 Medium, along with 10% fetal bovine serum, in a humidified incubator with an atmosphere of 95% air and 5% CO2 at 37° C. The assays were initiated by plating 20 μL of SH-SY5Y cells in culture medium with 0.1% fetal bovine serum, at a density of 5000 cells per well to a 384-well Corning™ BioCoat™ Poly-D-Lysine Multiwell Plates. The plates were incubated in the 37° C. incubators for a period of 5 hours. Compounds in DMSO were added to the plates in a volume of 120 nL using the Labcyte Echo Liquid Handlers. 5 μL of a 1.5 uM Doxorubicin solution in assay medium is added to each well. The plates are then incubated for 40 hours. 30 μL of a readout-solution containing 0.2 U/mL Diaphorase enzyme, 40 uM resazurin, 10 uM FMN, 0.8 U/mL Alcohol dehydrogenase, 3% ethanol, 0.4 mg/mL bovine serum albumin, 0.2% Triton X-100 in 100 mM Tris-HCl, 30 mM EDTA, pH 8.4. The plates were read for fluorescence (Excitation/Emission=540 nm/590 nm) using an EnVision plate reader after 60 mins of incubation at ambient temperature.

Structure (SMILES): Cc1nc(C(=O)N[C@H](C)c2cccc(F)n2)nc(NCCc2cn[nH]c2)c1C [Compound 4, (R)-4-((2-(1H-pyrazol-4-yl)ethyl)amino)-N-(1-(6-fluoropyridin-2-yl)ethyl)-5,6-dimethylpyrimidine-2-carboxamide]
AC1.4 Human (human NAMPT): 0.02 µM | EC50 (human NAMPT): 106 nM | SY5Y (human) NAD Cell Dox AC0.3 (endogenous NAMPT): 0.07 µM | EC50 (endogenous NAMPT): 110 nM

Structure (SMILES): Cc1nc(C(=O)N(C)C(c2cccc(F)c2)c2nccn2C)nc(NCCc2cn[nH]c2)c1C (centres unmarked) [Compound 5, 4-((2-(1H-pyrazol-4-yl)ethyl)amino)-N-((3-flurophenyl)(1-methyl-1H-imidazol-2-yl)methyl)-N,5,6-trimethylpyrimidine-2-carboxamide]
AC1.4 Human (human NAMPT): 0.0235 µM | EC50 (human NAMPT): 449 nM | SY5Y (human) NAD Cell Dox AC0.3 (endogenous NAMPT): 2.68 µM | EC50 (endogenous NAMPT): 1760 nM

Structure (SMILES): Cc1nc(C(=O)N2CCOCC2c2cccc(F)c2)nc(NCCc2cn[nH]c2)c1C (centres unmarked) [Compound 7, (4-((2-(1H-pyrazol-4-yl)ethyl)amino)-5,6-dimethylpyrimidin-2-yl)(3-(3-fluorophenyl)morpholino)methanone]
AC1.4 Human (human NAMPT): 0.029 µM | EC50 (human NAMPT): 326 nM | SY5Y (human) NAD Cell Dox AC0.3 (endogenous NAMPT): 0.19 µM | EC50 (endogenous NAMPT): 190 nM

Structure (SMILES): Cc1nc(C(=O)N[C@@H](C)c2cccc(F)c2)nc(NCCc2cn[nH]c2)c1C [Compound 10, (S)-4-((2-(1H-pyrazol-4-yl)ethyl)amino)-N-(1-(3-fluorophenyl)ethyl)-5,6-dimethylpyrimidine-2-carboxamide]
AC1.4 Human (human NAMPT): 0.046 µM | EC50 (human NAMPT): 520 nM | SY5Y (human) NAD Cell Dox AC0.3 (endogenous NAMPT): 0.2 µM | EC50 (endogenous NAMPT): 470 nM

Structure (SMILES): Cc1nc(C(=O)N2CCC[C@@H]2c2cccc(Cl)c2)nc(NCCc2cn[nH]c2)c1C [Compound 13, (R)-(4-((2-(1H-pyrazol-4-yl)ethyl)amino)-5,6-dimethylpyrimidin-2-yl)(2-(3-chlorophenyl)pyrrolidin-1-yl)methanone]
AC1.4 Human (human NAMPT): 0.035 µM | EC50 (human NAMPT): 3740 nM | SY5Y (human) NAD Cell Dox AC0.3 (endogenous NAMPT): 0.24 µM | EC50 (endogenous NAMPT): 230 nM

Structure (SMILES): Cc1nc(C(=O)N[C@H](C)c2cccs2)nc(NCCc2cn[nH]c2)c1C [Compound 14, (R)-4-((2-(1H-pyrazol-4-yl)ethyl)amino)-5,6-dimethyl-N-(1-(thiophen-2-yl)ethyl)pyrimidine-2-carboxamide]
AC1.4 Human (human NAMPT): 0.054 µM | EC50 (human NAMPT): 156 nM | SY5Y (human) NAD Cell Dox AC0.3 (endogenous NAMPT): 0.28 µM | EC50 (endogenous NAMPT): 480 nM

Structure (SMILES): Cc1nc(C(=O)N2CCC[C@@H]2c2cccc(F)c2)nc(NCCc2cn[nH]c2)c1C [Compound 15, (R)-(4-((2-(1H-pyrazol-4-yl)ethyl)amino)-5,6-dimethylpyrimidin-2-yl)(2-(3-fluorophenyl)pyrrolidin-1-yl)methanone]
AC1.4 Human (human NAMPT): 0.051 µM | EC50 (human NAMPT): 390 nM | SY5Y (human) NAD Cell Dox AC0.3 (endogenous NAMPT): 0.26 µM | EC50 (endogenous NAMPT): 190 nM

Structure (SMILES): Cc1nc(C(=O)N2CCOC[C@H]2c2ccccc2)nc(NCCc2cn[nH]c2)c1C [Compound 16, (R)-(4-((2-(1H-pyrazol-4-yl)ethyl)amino)-5,6-dimethylpyrimidin-2-yl)(3-phenylmorpholino)methanone]
AC1.4 Human (human NAMPT): 0.0585 µM | EC50 (human NAMPT): 621 nM | SY5Y (human) NAD Cell Dox AC0.3 (endogenous NAMPT): 0.41 µM | EC50 (endogenous NAMPT): 330 nM

Structure (SMILES): Cc1nc(C(=O)NC(c2cccc(F)c2)c2nccn2C)nc(NCCc2cn[nH]c2)c1C (centres unmarked) [Compound 20, 4-((2-(1H-pyrazol-4-yl)ethyl)amino)-N-((3-fluorophenyl)(1-methyl-1H-imidazol-2-yl)methyl)-5,6-dimethylpyrimidine-2-carboxamide]
AC1.4 Human (human NAMPT): 0.062 µM | EC50 (human NAMPT): 848 nM | SY5Y (human) NAD Cell Dox AC0.3 (endogenous NAMPT): 2.97 µM | EC50 (endogenous NAMPT): 8790 nM

Structure (SMILES): Cc1nc(C(=O)NC(C)(C)c2ccccc2)nc(NCCc2cn[nH]c2)c1C [Compound 21, 4-((2-(1H-pyrazol-4-yl)ethyl)amino)-5,6-dimethyl-N-(2-phenylpropan-2-yl)pyrimidine-2-carboxamide]
AC1.4 Human (human NAMPT): 0.0815 µM | EC50 (human NAMPT): 550 nM | SY5Y (human) NAD Cell Dox AC0.3 (endogenous NAMPT): 0.13 µM | EC50 (endogenous NAMPT): 280 nM

Structure (SMILES): Cc1nc(C(=O)NC(c2cccc(F)c2)c2ncco2)nc(NCCc2cn[nH]c2)c1C (centres unmarked) [Compound 23, 4-((2-(1H-pyrazol-4-yl)ethyl)amino)-N-((3-fluorophenyl)(oxazol-2-yl)methyl)-5,6-dimethylpyrimidine-2-carboxamide]
AC1.4 Human (human NAMPT): 0.0955 µM | EC50 (human NAMPT): 3240 nM | SY5Y (human) NAD Cell Dox AC0.3 (endogenous NAMPT): 1.57 µM | EC50 (endogenous NAMPT): 3250 nM

Structure (SMILES): Cc1nc(C(=O)N[C@H](C)c2ccccc2Cl)nc(NCCc2cn[nH]c2)c1C [Compound 26, (R)-4-((2-(1H-pyrazol-4-yl)ethyl)amino)-N-(1-(2-chlorophenyl)ethyl)-5,6-dimethylpyrimidine-2-carboxamide]
AC1.4 Human (human NAMPT): 0.1215 µM | EC50 (human NAMPT): 429 nM | SY5Y (human) NAD Cell Dox AC0.3 (endogenous NAMPT): 0.26 µM | EC50 (endogenous NAMPT): 720 nM

Structure (SMILES): Cc1nc(C(=O)NCC(C)(C)c2cccc(F)c2)nc(NCCc2cn[nH]c2)c1C [Compound 27, 4-((2-(1H-pyrazol-4-yl)ethyl)amino)-N-(2-(3-fluorophenyl)-2-methylpropyl)-5,6-dimethylpyrimidine-2-carboxamide]
AC1.4 Human (human NAMPT): 0.1305 µM | EC50 (human NAMPT): 1630 nM | SY5Y (human) NAD Cell Dox AC0.3 (endogenous NAMPT): 0.28 µM | EC50 (endogenous NAMPT): 740 nM

Structure (SMILES): Cc1nc(C(=O)NC2(c3ccccn3)CCC2)nc(NCCc2cn[nH]c2)c1C [Compound 145, 4-((2-(1H-pyrazol-4-yl)ethyl)amino)-5,6-dimethyl-N-(1-(pyridin-2-yl)cyclobutyl)pyrimidine-2-carboxamide]
AC1.4 Human (human NAMPT): 4.9555 µM | EC50 (human NAMPT): 22400 nM

Structure (SMILES): Cc1nc(C(=O)N2CCC[C@@H]2c2cccc(F)c2)nc(NCCc2cn[nH]c2)c1F [Compound 150, (R)-(4-((2-(1H-pyrazol-4-yl)ethyl)amino)-5-fluoro-6-methylpyrimidin-2-yl)(2-(3-fluorophenyl)pyrrolidin-1-yl)methanone]
AC1.4 Human (human NAMPT): 0.12 µM

Structure (SMILES): Cc1cc(NCCc2cn[nH]c2)nc(C(=O)N2CCC[C@@H]2c2cccc(F)c2)c1 [Compound 152]
AC1.4 Human (human NAMPT): 12.6 µM

Second part, the compound after the results:

AC1.4 Human (human NAMPT): 0.0715 µM | EC50 (human NAMPT): 549 nM | SY5Y (human) NAD Cell Dox AC0.3 (endogenous NAMPT): 0.24 µM | EC50 (endogenous NAMPT): 440 nM
Structure (SMILES): Cc1nc(C(=O)N[C@H](C)c2ccccc2)nc(NCCc2cn[nH]c2)c1C [Compound 17, (R)-4-((2-(1H-pyrazol-4-yl)ethyl)amino)-5,6-dimethyl-N-(1-phenylethyl)pyrimidine-2-carboxamide]

AC1.4 Human (human NAMPT): 1.956 µM | EC50 (human NAMPT): 12800 nM | SY5Y (human) NAD Cell Dox AC0.3 (endogenous NAMPT): 7.15 µM | EC50 (endogenous NAMPT): 8840 nM
Structure (SMILES): Cc1nc(C(=O)N2CC(O)(c3ccccc3)C2)nc(NCCc2cn[nH]c2)c1C [Compound 22, (4-((2-(1H-pyrazol-4-yl)ethyl)amino)-5,6-dimethylpyrimidin-2-yl)(3-hydroxy-3-phenylazetidin-1-yl)methanone]

AC1.4 Human (human NAMPT): 0.0955 µM | EC50 (human NAMPT): 770 nM | SY5Y (human) NAD Cell Dox AC0.3 (endogenous NAMPT): 2.49 µM | EC50 (endogenous NAMPT): 2260 nM
Structure (SMILES): Cc1nc(C(=O)N2CCNCC2c2cccc(F)c2)nc(NCCc2cn[nH]c2)c1C (centres unmarked) [Compound 24, (4-((2-(1H-pyrazol-4-yl)ethyl)amino)-5,6-dimethylpyrimidin-2-yl)(2-(3-fluorophenyl)piperazin-1-yl)methanone]

AC1.4 Human (human NAMPT): 0.1725 µM | EC50 (human NAMPT): 741 nM | SY5Y (human) NAD Cell Dox AC0.3 (endogenous NAMPT): 0.88 µM | EC50 (endogenous NAMPT): 1600 nM
Structure (SMILES): Cc1nc(C(=O)N[C@H](C)c2ncccc2Cl)nc(NCCc2cn[nH]c2)c1C [Compound 30, (R)-4-((2-(1H-pyrazol-4-yl)ethyl)amino)-N-(1-(3-chloropyridin-2-yl)ethyl)-5,6-dimethylpyrimidine-2-carboxamide]

AC1.4 Human (human NAMPT): 4.755 µM | EC50 (human NAMPT): 18400 nM
Structure (SMILES): Cc1nc(C(=O)Nc2ccncc2F)nc(NCCc2cn[nH]c2)c1C [Compound 144, 4-((2-(1H-pyrazol-4-yl)ethyl)amino)-N-(3-fluoropyridin-4-yl)-5,6-dimethylpyrimidine-2-carboxamide]

AC1.4 Human (human NAMPT): 2.7 µM
Structure (SMILES): C[C@@H](NC(=O)c1nc2c(c(NCCc3cn[nH]c3)n1)CCC2)c1cccc(F)n1 [Compound 146, (R)-4-((2-(1H-pyrazol-4-yl)ethyl)amino)-N-(1-(6-fluoropyridin-2-yl)ethyl)-6,7-dihydro-5H-cyclopenta[d] pyrimidine-2-carboxamide]

AC1.4 Human (human NAMPT): >31 µM
Structure (SMILES): Cc1nc(C(=O)N2CCC[C@@H]2c2cccc(F)c2)nc(NCCc2cn[nH]c2)c1Cl [Compound 148, (R)-(4-((2-(1H-pyrazol-4-yl)ethyl)amino)-5-chloro-6-methylpyrimidin-2-yl)(2-(3-fluorophenyl)pyrrolidin-1-yl)methanone]

SY5Y (human) NAD Cell Dox AC0.3 (endogenous NAMPT): 0.17 µM
Structure (SMILES): C[C@@H](NC(=O)c1cc(Br)cc(NCCc2cn[nH]c2)n1)c1cccc(F)n1 [Compound 151, (R)-6-((2-(1H-pyrazol-4-yl)ethyl)amino)-4-bromo-N-(1-(6-fluoropyridin-2-yl)ethyl)picolinamide]
